{
  "source": "patent US20040048376A1",
  "about": "“Methods for modulating splicing and/or alternative splicing, and for identifying alternatively spliced units in genes” (priority 2000, published 2004)",
  "key": {"[1]": {"system": "SR proteins", "experiment": "Binding of SR proteins to a purine-rich RNA splicing enhancer element", "conditions": "data not shown", "description": "(§1) Although DMSO is regarded as a relatively inert solvent for pharmacological applications, it improves the solvation of cations and stimulates nucleophilic reactions. Of note, DMF and formamide share this chemical property with DMSO. Thus, DMSO may improve the solvation of positive charges on proteins. This may influence the structure at the surface of proteins and facilitate ionic contacts between charged domains of interacting proteins. Consistent with this view, modulation of 5′ splice site selection in vitro is known to be sensitive to the ionic conditions of the reaction (Schmitt, P et al., 1987, Cell 50:31). Splicing proteins that carry charged domains include SR and U2AF proteins which have RS-domains rich in positively and negatively charged amino acids (arginines and phosphorylated serines, respectively). Interactions between the RS-domain containing proteins ASF/SF2, U1 snRNP-70 kD, and U2AF^35 have been proposed to occur early during spliceosome assembly (Wu, J. Y., and Maniatis, T. 1993, Cell 75:1061). Moreover, these interactions are sensitive to the phosphorylation state of ASF/SF2 (Xiao, S. H., and Manley, J. L. 1998, EMBO J. 17:6359)."}, "[2]": {"system": "phosphorylated SR proteins", "experiment": "Western analysis with antibody recognizing phosphorylated epitopes on SR proteins", "format": "biochemical", "conditions": "incubation with DMSO, data not shown", "description": "as §1"}},
  "data": [
    {"compound": "C[S+](C)[O-]", "note": "[DMSO, Dimethyl sulfoxide]", "values": [
      {"measurement": "binding of SR proteins to purine-rich RNA splicing enhancer element", "setting": "[1]", "result": "did not affect the binding of SR proteins"},
      {"measurement": "abundance of phosphorylated SR proteins", "setting": "[2]", "result": "no change in the overall and relative abundance of phosphorylated SR proteins"}
    ]}
  ]
}
